In ChEMBL document CHEMBL1136937, “Discovery of a potent class I selective ketone histone deacetylase inhibitor with antitumor activity in vivo and optimized pharmacokinetic properties” (J Med Chem, 2009):

Assays:
[1] = Metabolic stability in dog liver microsomes assessed as intrinsic clearance at 1 uM after 90 mins; format: ADME, Canis lupus familiaris, Microsome; details: liver microsomes
HeLa = test: Antiproliferative activity against human P53-deficient HeLa cells after 72 hrs by celltiter-blue cell viability assay; format: functional
[2] = Metabolic stability in human liver microsomes assessed as intrinsic clearance at 1 uM after 90 mins; format: ADME, Microsome; details: liver microsomes
Histone deacetylase 1 = Histone deacetylase 1 (Homo sapiens, UniProt Q13547)
Description: Inhibition of human C-terminal FLAG-tagged HDAC1 in HEK293 cells

[3] = Metabolic stability in rat liver microsomes assessed as intrinsic clearance at 1 uM after 90 mins; format: ADME, Microsome
G-401 = test: Antiproliferative activity against human G401 cells after 72 hrs by celltiter-blue cell viability assay; format: functional; details: Homo sapiens, G-401, 72 h
A2780 = test: Antiproliferative activity against human A2780 cells after 72 hrs by celltiter-blue cell viability assay; format: functional; details: A2780, 72 h
HCT-116 = test: Antiproliferative activity against human P53 expressing HCT116 cells after 72 hrs by celltiter-blue cell viability assay; format: functional; details: Homo sapiens, HCT-116, 72 h
A549 = test: Antiproliferative activity against human P53 expressing A549 cells after 72 hrs by celltiter-blue cell viability assay; format: functional; details: A549, 72 h
[4] = Clearance in Sprague-Dawley rat plasma at 3 mg/kg, iv and 3 mg/kg, po; format: ADME, organism-based

Sequence of Histone deacetylase 1 (Q13547 whole entry): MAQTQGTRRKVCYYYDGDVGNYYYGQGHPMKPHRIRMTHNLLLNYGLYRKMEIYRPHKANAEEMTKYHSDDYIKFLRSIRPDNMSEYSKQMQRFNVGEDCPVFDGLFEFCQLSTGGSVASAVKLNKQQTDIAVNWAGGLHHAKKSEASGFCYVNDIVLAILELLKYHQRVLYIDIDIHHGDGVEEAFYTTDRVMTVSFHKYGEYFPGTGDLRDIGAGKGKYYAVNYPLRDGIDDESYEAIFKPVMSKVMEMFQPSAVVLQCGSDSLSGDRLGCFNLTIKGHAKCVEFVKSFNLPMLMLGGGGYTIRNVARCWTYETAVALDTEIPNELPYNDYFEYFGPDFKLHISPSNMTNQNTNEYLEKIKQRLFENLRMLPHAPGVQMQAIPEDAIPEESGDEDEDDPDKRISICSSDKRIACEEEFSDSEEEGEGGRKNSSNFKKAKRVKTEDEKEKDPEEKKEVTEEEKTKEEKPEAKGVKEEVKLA

| Compound | microsomal CLint at 1 µM [1] | microsomal CLint at 1 µM [2] | IC50 (Histone deacetylase 1) | microsomal CLint at 1 µM [3] | clearance [4] | CC50 (HeLa) | CC50 (G-401) | CC50 (A2780) | CC50 (HCT-116) | CC50 (A549) |
| --- | --- | --- | --- | --- | --- | --- | --- | --- | --- | --- |
| CCC(=O)CCCCC[C@H](NC(=O)CCN1CCN(C)CC1)c1ncc(-c2cc(OC)c3ccccc3n2)[nH]1 | 170 µL/min/mg | 140 µL/min/mg | 17 nM | 190 µL/min/mg | – | 390 nM | – | – | – | – |
| Nc1ccccc1NC(=O)c1ccc(CNC(=O)OCc2cccnc2)cc1 [ENTINOSTAT] | – | – | – | – | – | 1800 nM | 1300 nM | 3000 nM | 700 nM | 1200 nM |
| CCC(=O)CCCCC[C@H](NC(=O)C1CN(C)C1)c1ncc(-c2cc(OC)c3ccccc3n2)[nH]1 | 9 µL/min/mg | 16 µL/min/mg | 162 nM | 15 µL/min/mg | 20 mL/min/kg | 970 nM | – | – | – | – |
| CCC(=O)CCCCC[C@H](NC(=O)C1CCN(C)CC1)c1ncc(-c2cc(OC)c3ccccc3n2)[nH]1 | 5 µL/min/mg | 10 µL/min/mg | 30 nM | 36 µL/min/mg | 36 mL/min/kg | 770 nM | – | – | – | – |
| CCC(=O)CCCCC[C@H](NC(=O)CCN(C)C)c1ncc(-c2cc(OC)c3ccccc3n2)[nH]1 | 6 µL/min/mg | 15 µL/min/mg | 51 nM | 38 µL/min/mg | 59 mL/min/kg | 500 nM | – | – | – | – |

Further lines, with some results ahead:

| microsomal CLint at 1 µM [1] | microsomal CLint at 1 µM [2] | IC50 (Histone deacetylase 1) | microsomal CLint at 1 µM [3] | clearance [4] | Compound | CC50 (HeLa) | CC50 (G-401) | CC50 (A2780) | CC50 (HCT-116) | CC50 (A549) |
| --- | --- | --- | --- | --- | --- | --- | --- | --- | --- | --- |
| 23 µL/min/mg | 12 µL/min/mg | 2 nM | 98 µL/min/mg | – | CCC(=O)CCCCC[C@H](NC(=O)C1CCN(C)CC1)c1ncc(-c2ccc3ncccc3c2)[nH]1 | 200 nM | – | – | – | – |
| 18 µL/min/mg | 29 µL/min/mg | 8 nM | 210 µL/min/mg | – | CCC(=O)CCCCC[C@H](NC(=O)C1CCN(C)CC1)c1ncc(-c2cc3ccccc3cn2)[nH]1 | 22 nM | – | – | – | – |
| 28 µL/min/mg | 18 µL/min/mg | 8 nM | 34 µL/min/mg | – | CCC(=O)CCCCC[C@H](NC(=O)C1CN(C)C1)c1ncc(-c2cc3ccccc3nc2F)[nH]1 | 190 nM | – | – | – | – |
